What was measured:
[1] = test system: DOI-induced hypolocomotion; assay: Attenuation of DOI-induced hypolocomotion in rats; format: in vivo, rat; settings: 50 μmol/kg p.o., 60 min before DOI 0.3 mg/kg s.c.
Protocol: In this Example, compounds of the invention, such as Compound 1 and Compound 26, were tested for inverse agonist activity by determining whether these compounds could attenuate DOI-induced hypolocomotion in rats in a novel environment. DOI is a potent 5HT2A/5HT2C receptor agonist that crosses the blood-brain barrier.
Male Sprague-Dawley rats (Harlan, San Diego, Calif.) weighing between 200-300 g were used for all tests. Rats were housed three to four per cage. These rats were naive to experimental testing and drug treatment. Rats were handled one to three days before testing to acclimate them to experimental manipulation. Rats were fasted overnight prior to testing.
(R)-DOI HCl (C11H16INO2HCl) was obtained from Sigma-Aldrich, and was dissolved in 0.9% saline. […]
The “Motor Monitor” (Hamilton-Kinder, Poway, Calif.) was used for all activity measurement. This apparatus recorded rears using infrared photobeams. […]
In determining the effects of compounds of the invention on DOI-induced hypoactivity, animals were first injected with vehicle or the compound of the invention (50 μmol/kg) in their home cages. […] 10 min after DOI administration, animals were placed into the activity apparatus and rearing activity was measured for 10 minutes.
Results (total rears over 10 minutes) were analyzed by t-test. […]

[2] = test system: JC virus infection of human glial cells; settings: Elphick et al., Science (2004); cited from earlier work
[3] = target: T1, endogenous human 5-HT2C receptor (Homo sapiens, UniProt P28335)
T1 sequence (P28335 33-458): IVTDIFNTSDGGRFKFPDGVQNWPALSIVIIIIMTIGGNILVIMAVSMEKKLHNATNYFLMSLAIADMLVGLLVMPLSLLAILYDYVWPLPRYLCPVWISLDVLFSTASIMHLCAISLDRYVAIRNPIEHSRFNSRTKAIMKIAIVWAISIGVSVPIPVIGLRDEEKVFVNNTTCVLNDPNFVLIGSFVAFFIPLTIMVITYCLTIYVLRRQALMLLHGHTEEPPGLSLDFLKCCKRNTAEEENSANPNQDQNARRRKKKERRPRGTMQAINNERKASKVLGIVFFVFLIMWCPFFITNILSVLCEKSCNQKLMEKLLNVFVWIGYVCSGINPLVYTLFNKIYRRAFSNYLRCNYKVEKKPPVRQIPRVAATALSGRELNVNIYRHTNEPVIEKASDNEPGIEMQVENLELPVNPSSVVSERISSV

5HT2A receptor = target: T2, 5HT2A receptor (Rattus norvegicus, UniProt P14842); assay: 125I-LSD displacement from brain sections, autoradiography, cortex; format: binding, Sprague-Dawley rats; settings: 1 micromolar compound, 1 nanomolar 125I-LSD
T2 construct: from tissue; host or cells: Sprague-Dawley rat brain, horizontal cryostat sections (cerebral cortex)
T2 sequence (P14842 whole entry): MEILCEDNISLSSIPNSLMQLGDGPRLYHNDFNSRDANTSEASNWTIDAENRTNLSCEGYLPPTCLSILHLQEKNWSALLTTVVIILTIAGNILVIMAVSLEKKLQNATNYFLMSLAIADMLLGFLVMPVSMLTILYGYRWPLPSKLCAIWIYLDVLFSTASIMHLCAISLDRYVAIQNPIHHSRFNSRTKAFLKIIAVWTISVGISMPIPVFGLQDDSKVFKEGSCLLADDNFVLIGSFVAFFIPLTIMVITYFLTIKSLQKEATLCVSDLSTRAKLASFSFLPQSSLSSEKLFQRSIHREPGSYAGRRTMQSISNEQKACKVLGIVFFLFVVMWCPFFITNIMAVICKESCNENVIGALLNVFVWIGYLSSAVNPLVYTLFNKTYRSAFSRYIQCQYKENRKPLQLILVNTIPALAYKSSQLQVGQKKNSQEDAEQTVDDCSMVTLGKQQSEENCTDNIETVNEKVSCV

SMILES	effect on DOI-induced hypolocomotion (total rears over 10 minutes) [1]	JC virus infection of human glial cells [2]	further results
COc1ccc(NC(=O)Nc2ccc(Cl)cc2)cc1-c1c(Cl)cnn1C [Compound 26, 1-[3-(4-Chloro-2-methyl-2H-pyrazol-3-yl)-4-methoxy-phenyl]-3-(4-chloro-phenyl)-urea]	attenuated DOI-induced hypolocomotion		
O=C(c1ccc(F)cc1)C1CCN(CCn2c(=O)[nH]c3ccccc3c2=O)CC1 [ketanserin]		inhibited	
Cc1nc2sccn2c(=O)c1CCN1CCC(=C(c2ccc(F)cc2)c2ccc(F)cc2)CC1 [Ritanserin]		inhibited	
CN1CCN2c3ccccc3Cc3ccccc3C2C1 (stereo not shown) [mianserin]			inhibition of serotonin-stimulated [35S]GTPγS binding ([3]; 30 μM mianserin): inhibits this response; effect on basal constitutive binding of [35S]GTPγS ([3]; no agonist): partial inverse agonist
COc1ccc(OC(=O)Nc2cccc(-c3c(Br)cnn3C)c2)cc1 [Compound S-1610, [3-(4-Bromo-2-methyl-2H-pyrazol-3-yl)-phenyl]-carbamic acid 4-methoxy-phenyl ester]			displacement of 125I-LSD from the cortex (5HT2A) (5HT2A receptor): selectively displace
COc1ccc(NC(=O)Nc2ccc(Cl)cc2)cc1-c1c(Br)cnn1C [Compound 1, 1-[3-(4-Bromo-2-methyl-2H-pyrazol-3-yl)-4-methoxy-phenyl]-3-(4-chloro-phenyl)-urea]	attenuated DOI-induced hypolocomotion		

Source: US20080200530A1 (priority 2005, published 2008)
